Laboratory results from ChEMBL document CHEMBL3885861, “Open TG-GATES”.

Organism: Rattus norvegicus
Test: Open TG-GATES - Regimen: Daily Repeat
Format: toxicity, organism-based, Sprague-Dawley
Design: regimen Daily Repeat, gender Male, age 6 weeks
Details: in vivo, po, 1000 mg/kg, […], route gavage, dose level High; for KIDNEY_L / KIDNEY_R / KIDNEY_TOTAL: tissue Kidney; for LIVER: tissue Liver; for A/G / ALP / ALT / AST / BUN / CRE / Ca / Cl / DBIL / GLC / IP / LDH / Na / PL / RALB / TBIL / TC / TG / TP / gamma-GTP: tissue Plasma

With `NC(N)=Nc1nc(CSCCC(N)=NS(N)(=O)=O)cs1` [FAMOTIDINE] the Ht (tissue Blood, time 28 day) was 44.1%, the Lym (tissue Blood, time 28 day) was 84.8% and the MCH (tissue Blood, time 28 day) was 19.7 pg. It also gave an MCHC (tissue Blood, time 28 day) of 35.6%, an MCV (tissue Blood, time 28 day) of 55.4 fL and a Mono (tissue Blood, time 28 day) of 1.4%. The Neu (tissue Blood, time 28 day) was 11%, the PT (tissue Blood, time 28 day) was 12.5 s and the Plat (tissue Blood, time 28 day) was 100.2 x10_4/uL. It also gave an RBC (tissue Blood, time 28 day) of 796.6 x10_4/ul, a Ret (tissue Blood, time 28 day) of 1.9% and a WBC (tissue Blood, time 28 day) of 114.1 x10_2/uL. It also gave a KIDNEY_L (time 7 day) of 1.2 g, a KIDNEY_R (time 7 day) of 1.2 g and a KIDNEY_TOTAL (time 7 day) of 2.4 g. For the same molecule, the KIDNEY_L (time 14 day) was 1.3 g, the KIDNEY_R (time 14 day) was 1.3 g and the KIDNEY_TOTAL (time 14 day) was 2.6 g. The KIDNEY_L (time 28 day) was 1.3 g, the KIDNEY_R (time 28 day) was 1.3 g and the KIDNEY_TOTAL (time 28 day) was 2.7 g. It also gave an LIVER (time 7 day) of 12.2 g, an LIVER (time 14 day) of 14 g and an LIVER (time 28 day) of 14.6 g. The A/G (time 7 day) was 1.5, the ALP (time 7 day) was 987.2 IU/L and the ALT (time 7 day) was 36.6 IU/L. For the same molecule, the AST (time 7 day) was 69.8 IU/L, the BUN (time 7 day) was 14.6 mg/dL and the CRE (time 7 day) was 0.4 mg/dL. It also gave a Ca (time 7 day) of 10.8 mg/dL, a Cl (time 7 day) of 103.6 meq/L and a DBIL (time 7 day) of 0.088 mg/dL. It also gave a GLC (time 7 day) of 183.6 mg/dL, an IP (time 7 day) of 7.3 mg/dL and an LDH (time 7 day) of 184 IU/L. The Na (time 7 day) was 140.8 meq/L, the PL (time 7 day) was 147.6 mg/dL and the RALB (time 7 day) was 3.4 g/dL. The TBIL (time 7 day) was 0.1 mg/dL, the TC (time 7 day) was 79 mg/dL and the TG (time 7 day) was 69.4 mg/dL. For the same molecule, the TP (time 7 day) was 5.6 g/dL, the gamma-GTP (time 7 day) was 1 IU/L and the A/G (time 14 day) was 1.5. For the same molecule, the ALP (time 14 day) was 838 IU/L, the ALT (time 14 day) was 36.6 IU/L and the AST (time 14 day) was 64.6 IU/L. It also gave a BUN (time 14 day) of 16.4 mg/dL, a CRE (time 14 day) of 0.5 mg/dL and a Ca (time 14 day) of 10.8 mg/dL. For the same molecule, the Cl (time 14 day) was 103.4 meq/L, the DBIL (time 14 day) was 0.078 mg/dL and the GLC (time 14 day) was 196.6 mg/dL. The IP (time 14 day) was 7.4 mg/dL, the LDH (time 14 day) was 162 IU/L and the Na (time 14 day) was 140.6 meq/L. For the same molecule, the PL (time 14 day) was 134.8 mg/dL, the RALB (time 14 day) was 3.6 g/dL and the TBIL (time 14 day) was 0.1 mg/dL. The TC (time 14 day) was 72.4 mg/dL, the TG (time 14 day) was 66.8 mg/dL and the TP (time 14 day) was 5.9 g/dL. For the same molecule, the gamma-GTP (time 14 day) was 1.6 IU/L, the A/G (time 28 day) was 1.3 and the ALP (time 28 day) was 722.6 IU/L. The ALT (time 28 day) was 36.2 IU/L, the AST (time 28 day) was 62.4 IU/L and the BUN (time 28 day) was 17.4 mg/dL. For the same molecule, the CRE (time 28 day) was 0.6 mg/dL, the Ca (time 28 day) was 10.3 mg/dL and the Cl (time 28 day) was 102.8 meq/L. It also gave a DBIL (time 28 day) of 0.076 mg/dL, a GLC (time 28 day) of 220 mg/dL and an IP (time 28 day) of 7 mg/dL. For the same molecule, the LDH (time 28 day) was 132.6 IU/L, the Na (time 28 day) was 141.6 meq/L and the PL (time 28 day) was 121.2 mg/dL. The RALB (time 28 day) was 3.4 g/dL, the TBIL (time 28 day) was 0.1 mg/dL and the TC (time 28 day) was 62.4 mg/dL. The TG (time 28 day) was 72.2 mg/dL, the TP (time 28 day) was 6 g/dL and the gamma-GTP (time 28 day) was 1.4 IU/L.
